In ChEMBL document CHEMBL1135083, “A designed P1 cysteine mimetic for covalent and non-covalent inhibitors of HCV NS3 protease” (Bioorg Med Chem Lett, 2002) one finds Ki data, which are given here for 13 compounds.

Broadly, the Ki is a measure of affinity in units of concentration, obtained from inhibition or displacement. The low end stands for tighter binding, the high end for weaker binding.

Numbered stars: 1 amine (or outer) side, 2 acyl side, 3 side chain; on linkers, the order of the positions; unused ones are H or OH. Square brackets hold non-standard residues; d marks the D form. Peptide text beside a SMILES is read from it. * marks the point of attachment. Dip = N[C@H](C(=O)O)C(c1ccccc1)c1ccccc1; X4 = O=C(C(=O)[*:2])[C@H](CC(F)F)N[*:1]; X3 = O=C(c1nc2ccccc2s1)[C@H](CC(F)F)N*; X6 = O=C(c1nc2ccccc2o1)[C@H](CC(F)F)N*; Abu(4,4-F2) = N[C@@H](CC(F)F)C(=O)O; X5 = O=C([C@@H](CC(F)F)N[*:1])[*:2]; X1 = O=C(c1nccs1)[C@H](CC(F)F)N*; X2 = COC(=O)C(=O)[C@H](CC(F)F)N*; X7 = O=C(O)C(=O)[C@H](CC(F)F)N*; Cha = N[C@@H](CC1CCCCC1)C(=O)O; AllylGly = C=CC[C@H](N)C(=O)O; Abu = CC[C@H](N)C(=O)O; NHBn = c1ccc(CN*)cc1

The test concerns the target Hepatitis C virus serine protease, NS3/NS4A (Hepatitis C virus, UniProt A3EZI9+D2K2A8). The test can be described thus: Inhibition of hepatitis C virus (HCV) NS3/NS4A serine protease. In kind it is protein-complex assay, Hepacivirus hominis.

Chain of Hepatitis C virus serine protease, NS3/NS4A (D2K2A8 whole entry): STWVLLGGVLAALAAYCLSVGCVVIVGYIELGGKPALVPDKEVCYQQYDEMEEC
Chain of Hepatitis C virus serine protease, NS3/NS4A (A3EZI9 whole entry): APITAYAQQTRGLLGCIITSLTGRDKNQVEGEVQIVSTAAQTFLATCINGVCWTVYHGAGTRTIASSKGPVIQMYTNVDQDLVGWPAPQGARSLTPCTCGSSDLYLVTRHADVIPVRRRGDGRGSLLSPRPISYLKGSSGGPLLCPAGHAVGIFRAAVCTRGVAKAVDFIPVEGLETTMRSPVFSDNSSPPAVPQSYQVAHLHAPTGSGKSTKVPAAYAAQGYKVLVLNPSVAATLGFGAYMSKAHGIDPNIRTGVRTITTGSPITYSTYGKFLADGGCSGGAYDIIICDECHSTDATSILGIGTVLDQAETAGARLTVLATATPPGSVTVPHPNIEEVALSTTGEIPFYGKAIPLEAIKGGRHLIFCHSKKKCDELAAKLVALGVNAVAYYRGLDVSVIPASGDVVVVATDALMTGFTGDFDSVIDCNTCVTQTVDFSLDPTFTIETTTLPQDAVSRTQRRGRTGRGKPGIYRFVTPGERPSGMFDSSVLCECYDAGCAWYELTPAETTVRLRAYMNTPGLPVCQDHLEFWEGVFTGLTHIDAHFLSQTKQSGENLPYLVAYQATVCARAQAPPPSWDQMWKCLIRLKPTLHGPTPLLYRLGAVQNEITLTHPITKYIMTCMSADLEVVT

On to `CC(=O)N[C@@H](CC(=O)O)C(=O)N[C@@H](CCC(=O)O)C(=O)N[C@H](C(=O)N[C@@H](CCC(=O)O)C(=O)N[C@@H](CC1CCCCC1)C(=O)N[C@@H](CC(F)F)C(=O)c1nc2ccccc2s1)C(c1ccccc1)c1ccccc1` (Ac-DE[Dip]E[Cha]-X3), for which the affinity corresponds to a Ki of 150 nM. `CC(=O)N[C@@H](CC(=O)O)C(=O)N[C@@H](CCC(=O)O)C(=O)N[C@H](C(=O)N[C@@H](CCC(=O)O)C(=O)N[C@@H](CC1CCCCC1)C(=O)N[C@H](C=O)CC(F)F)C(c1ccccc1)c1ccccc1` (Ac-DE[Dip]E[Cha][Abu(4,4-F2)]-aldehyde) returned a Ki of 0.5 nM. Then `CC(=O)N[C@@H](CC(=O)O)C(=O)N[C@@H](CCC(=O)O)C(=O)N[C@H](C(=O)N[C@@H](CCC(=O)O)C(=O)N[C@@H](CC1CCCCC1)C(=O)N[C@@H](CC(F)F)C(=O)O)C(c1ccccc1)c1ccccc1` (Ac-DE[Dip]E[Cha][Abu(4,4-F2)]-OH), with 30 nM; and `C=CC[C@H](NC(=O)[C@H](CC1CCCCC1)NC(=O)[C@H](CCC(=O)O)NC(=O)[C@@H](NC(=O)[C@H](CCC(=O)O)NC(=O)[C@H](CC(=O)O)NC(C)=O)C(c1ccccc1)c1ccccc1)C(=O)O` (Ac-DE[Dip]E[Cha][AllylGly]-OH), with 100 nM.

`CC(=O)N[C@@H](CC(=O)O)C(=O)N[C@@H](CCC(=O)O)C(=O)N[C@H](C(=O)N[C@@H](CCC(=O)O)C(=O)N[C@@H](CC1CCCCC1)C(=O)N[C@H](CC(F)F)C(=O)O)C(c1ccccc1)c1ccccc1` (Ac-DE[Dip]E[Cha][X5]-OH) registered a Ki of 640 nM. In turn, `CC(=O)N[C@@H](CC(=O)O)C(=O)N[C@@H](CCC(=O)O)C(=O)N[C@H](C(=O)N[C@@H](CCC(=O)O)C(=O)N[C@@H](CC1CCCCC1)C(=O)N[C@@H](CC(F)F)C(=O)C(=O)O)C(c1ccccc1)c1ccccc1` (Ac-DE[Dip]E[Cha]-X7) registered a Ki of 0.01 nM.

In turn, `CC(=O)N[C@@H](CC(=O)O)C(=O)N[C@@H](CCC(=O)O)C(=O)N[C@H](C(=O)N[C@@H](CCC(=O)O)C(=O)N[C@@H](CC1CCCCC1)C(=O)N[C@@H](CS)C(=O)O)C(c1ccccc1)c1ccccc1` (Ac-DE[Dip]E[Cha]C-OH) showed a Ki of 40 nM. Under `CC(=O)N[C@@H](CC(=O)O)C(=O)N[C@@H](CCC(=O)O)C(=O)N[C@H](C(=O)N[C@@H](CCC(=O)O)C(=O)N[C@@H](CC1CCCCC1)C(=O)N[C@@H](CC(F)F)C(=O)C(=O)NCc1ccccc1)C(c1ccccc1)c1ccccc1` (Ac-DE[Dip]E[Cha][X4]-NHBn) stands 1.5 nM; under `CC(=O)N[C@@H](CC(=O)O)C(=O)N[C@@H](CCC(=O)O)C(=O)N[C@H](C(=O)N[C@@H](CCC(=O)O)C(=O)N[C@@H](CC1CCCCC1)C(=O)N[C@@H](CC(F)F)C(=O)c1nc2ccccc2o1)C(c1ccccc1)c1ccccc1` (Ac-DE[Dip]E[Cha]-X6), 600 nM. Turning to `C=CC[C@@H](C=O)NC(=O)[C@H](CC1CCCCC1)NC(=O)[C@H](CCC(=O)O)NC(=O)[C@@H](NC(=O)[C@H](CCC(=O)O)NC(=O)[C@H](CC(=O)O)NC(C)=O)C(c1ccccc1)c1ccccc1` (Ac-DE[Dip]E[Cha][AllylGly]-aldehyde), the Ki stood at 7 nM. `CC[C@H](NC(=O)[C@H](CC1CCCCC1)NC(=O)[C@H](CCC(=O)O)NC(=O)[C@@H](NC(=O)[C@H](CCC(=O)O)NC(=O)[C@H](CC(=O)O)NC(C)=O)C(c1ccccc1)c1ccccc1)C(=O)O` (Ac-DE[Dip]E[Cha][Abu]-OH) returned a Ki of 700 nM.

`COC(=O)C(=O)[C@H](CC(F)F)NC(=O)[C@H](CC1CCCCC1)NC(=O)[C@H](CCC(=O)O)NC(=O)[C@@H](NC(=O)[C@H](CCC(=O)O)NC(=O)[C@H](CC(=O)O)NC(C)=O)C(c1ccccc1)c1ccccc1` (Ac-DE[Dip]E[Cha]-X2) yielded a Ki of 2 nM. The compound `CC(=O)N[C@@H](CC(=O)O)C(=O)N[C@@H](CCC(=O)O)C(=O)N[C@H](C(=O)N[C@@H](CCC(=O)O)C(=O)N[C@@H](CC1CCCCC1)C(=O)N[C@@H](CC(F)F)C(=O)c1nccs1)C(c1ccccc1)c1ccccc1` (Ac-DE[Dip]E[Cha]-X1) showed a Ki of 1500 nM.
